In US9309187B2, “EP2 receptor agonists” (TAKEDA GMBH, priority 2012, dated 2016):

What was measured:
[1] = target: T1, human EP2 receptor (Homo sapiens, UniProt P43116); assay: EP2 binding assay (PGE2 displacement); details: recombinant human EP2 membranes, 1 nanoM [3H]-PGE2; reported as range bins; read-out: EP2 binding (PGE2 displacement) pIC50 (-log IC50) (converted)
T1 construct: purchased Millipore
Protocol: Method for Measuring Inhibition of PGE2 Binding to the Human Prostanoid Receptor EP2:
Human EP2 receptor equilibrium competition binding assays were performed according to Abramovitz et al. (M. Abramovitz et al. 2000, Biochimica et Biophysica Acta 1483: 285-293) in a final incubation volume of 100 microL in 50 milliM Bis-Tris, pH6.0 in 96-well plates. Radiolabelled Prostaglandin E2 (PGE2) (1 nanoM [^3H]-PGE2 purchased from Perkin Elmer) was added to the assay as competitive ligand. Test compounds stored as Dimethylsulfoxide (DMSO) stock solutions were added to the assay in serial dilutions in assay buffer while keeping the final DMSO concentration equal in each sample. The reaction was initiated by addition of membrane proteins harbouring human EP2 receptor (ChemiSCREEN™ membrane preparation recombinant human EP2 prostanoid receptor that was purchased by Millipore). Total binding was determined in the absence of test compound or PGE2 and non-specific binding was determined in the presence of 1 microM PGE2. Incubations were conducted for 60 minutes at room temperature until equilibrium was reached and terminated by filtration through GF/B filter (Perkin Elmer) prewetted with 0.3% PEI solution. Unbound radiolabelled PGE2 was removed by 8 wash cycles with the same buffer under ice-cold conditions and the filters containing the residual radioactivity were dried for 60 minutes at 60° C. In order to measure the filter bound radioactivity, 40 microL microscint (scintillation liquid) was added to each filter and the chemiluminescence was determined by TopCount-NTX™. The specific binding was calculated by subtracting non-specific binding from each sample. Percent inhibition by test compounds was calculated based on specific binding without test compound. Each sample was measured in triplicates per experiment and for the calculation of the pIC50 at least 2 independent experiments were performed. Determination of half maximal inhibiting concentration (IC50) was performed with GraphPad Prism Software.
The numbers of the compounds correspond to the examples numbers.
EP2 Binding Assay (PGE2 Displacement): pIC50 Values

[2] = target: T2, human prostanoid receptor EP2 (Homo sapiens, UniProt P43116); assay: EP2 cAMP release assay in CHOp6CreLuc-huEP2 cells (CRE-luciferase readout); assay type: cell-based; details: CHOp6CreLuc-huEP2 cells, 4 hours at 37° C.; reported as range bins; read-out: EP2 cAMP release assay pEC50 (-log EC50) (converted)
T2 construct: expressed in transfected cells; host or cells: CHO-K1 (CHOp6CreLuc-huEP2)
T2 sequence (P43116 whole entry): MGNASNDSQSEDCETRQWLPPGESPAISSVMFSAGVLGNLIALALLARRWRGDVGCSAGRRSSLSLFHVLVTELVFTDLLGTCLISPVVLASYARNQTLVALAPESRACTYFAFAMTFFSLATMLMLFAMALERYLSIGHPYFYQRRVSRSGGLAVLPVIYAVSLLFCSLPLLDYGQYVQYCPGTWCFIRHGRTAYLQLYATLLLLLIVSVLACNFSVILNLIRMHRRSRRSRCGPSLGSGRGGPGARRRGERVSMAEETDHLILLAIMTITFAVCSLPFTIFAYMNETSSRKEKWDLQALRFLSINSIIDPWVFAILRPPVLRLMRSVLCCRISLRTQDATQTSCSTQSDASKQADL
Protocol: Method for Measuring cAMP Release in Human EP2 Stably Transfectant Cells:
The potency and efficacy of EP2 agonists have been determined via measuring cAMP release in stably transfectant CHO-K1 cell expressing the human prostanoid receptor EP2 and luciferase enzyme regulated via a 6 times CRE (cAMP response element) containing transcriptional promoter. CHOp6CreLuc-huEP2 cells were seeded into 384-well plate (1000 cells per well) in DMEM/F12 (Dulbecco's Modified Eagle Medium/Nutrient Mixture F12) cell culture medium containing 2% FCS (Fetal Calf Serum) and 500 μg/ml G418 24 hours prior to the experiment. Test compound was added as serial dilutions while keeping the final DMSO concentration constant in each well. […] Cells were incubated together with test compound or butaprost for 4 hours at 37° C. The cAMP release was determined indirectly via luciferase activity that directly correlated to the amount of luciferase enzyme expressed in response to cAMP regulated promoter activity. The luciferase activity was determined by addition of luciferin containing buffer and subsequent quantification of resulting luminescence. Each sample was measured in quadruplicates per experiment and half-maximal effective concentration (EC50) and relative maximal effect compared to butaprost was determined from 3 independent experiments with GraphPad Prism Software. A compound that achieved over 80% of the maximal effect of butaprost was considered as full agonist.
For the following compounds the potency was determined in the cAMP release assay applying human EP2 transfectant CHOp6CreLuc-huEP2 cells. […] The numbers of the compounds correspond to the examples numbers.
EP2 cAMP Release Assay: pEC50

[3] = system: TNFalpha release in human whole blood stimulated with LPS; assay: Inhibition of LPS induced TNFalpha release in human whole blood; assay type: cell-based; details: 1 microg/mL LPS, 4 hours, reported as range bins, read-out: Inhibition of LPS induced TNFalpha release in human whole blood pIC30 (-log IC30)
Protocol: Method for Measuring the Inhibition of TNFalpha Release in Human Whole Blood Stimulated with LPS:
Assay was performed with some modifications of the method described by Hatzelmann and Schudt (Hatzelmann and Schudt (2001) JPET 297: 267-279) and the protocol “drawing of venous blood from healthy volunteers for in vitro studies” was approved by the ethics committee of the Landesärztekammer Baden Württemberg in Stuttgart.
Heparinised venous blood was equilibrated to assay conditions for 1 hour at room temperature upon blood drawing. Immediately thereafter, 200 microL whole blood per sample were pre-incubated with 25 microL of a serial dilution of test compound or piclamilast as positive control for 30 min. at 37° C. After pre-incubation blood samples were stimulated by the addition of 25 microL lipopolysaccharide (LPS) (Sigma, Aldrich) per sample resulting in a final concentration of 1 microg/mL LPS and a final volume of 250 microL. Cells were incubated for 4 hours at 37° C. TNFalpha levels were determined from plasma that was obtained by a centrifugation step and transferring the supernatant to a new 96-well plate which was again centrifuged and clear plasma supernatant was used for the measurement of TNFalpha via alphaLISA Technology according to manufacture protocol (Perkin Elmer).
(§1) Whole blood samples that were not stimulated with LPS were used as control and set for 100% inhibition. Whole blood samples that were stimulated with LPS and solvent instead of test compound were set as 0% inhibition. Percent inhibition was calculated based on these controls for each sample and since most compounds achieved saturating maximal inhibition of 60% a pIC30 value was calculated with GraphPad Prism Software.
For the following compounds the inhibitory values of TNFalpha release [determined as −log IC30=pIC30] in the human whole blood assay between 4.5 and 4.9, between 5.0 and 5.9 and between 6.0 and 6.9 have been determined. The numbers of the compounds correspond to the examples numbers.
Inhibition of LPS Induced TNFalpha Release Assay in Human Whole Blood: pIC30

[4] = system: TNFalpha release in human peripheral blood mononuclear cells (PBMC) stimulated with LPS; assay: Inhibition of LPS induced TNFalpha release in human PBMCs; assay type: cell-based; details: 1 ng/mL LPS, 24 hours, reported as range bins, read-out: Inhibition of LPS induced TNFalpha release in human PBMCs pIC30 (-log IC30)
Protocol: Method for Measuring the Inhibition of TNFalpha Release in Human Peripheral Blood MononuClear Cells (PBMC) Stimulated with LPS:
Assay was performed with some modifications of the method described by Hatzelmann and Schudt (Hatzelmann and Schudt 2001, J. Pharmacol. Exp. Therapeutics 297: 267-279) and the protocol “drawing of venous blood from healthy volunteers for in vitro studies” was approved by the ethics committee of the Landesärztekammer Baden Württemberg in Stuttgart. Peripheral blood mononuclear cells (PBMCs) were isolated from venous blood with the anticoagulant citrate from healthy donors according to standard protocols using Ficoll. The cell layer of PBMCs were washed twice with phosphate buffer solution and equilibrated at room temperature for 60 minutes. 500,000 PBMCs in 180 microL RPMI1640 cell medium supplemented with 10% FCS, NEAA (Non-essential-amino-acids), L-Glutamine and Sodium Pyruvate per sample were pre-incubated with 10 microL of a serial dilution of test compound or piclamilast as positive control for 60 min. at 37° C. After pre-incubation blood samples were stimulated by the addition of 10 microL LPS (Sigma, Aldrich) per sample resulting in a final concentration of 1 ng/mL LPS and a final volume of 200 microL. Cells were incubated for 24 hours at 37° C. TNFalpha levels were determined from cell supernatant that was obtained by a centrifugation step and transferring the supernatant to a new 96-well plate. Content of TNFalpha was determined via alphaLISA Technology according to manufacture protocol (Perkin Elmer).
as §1, with “PBMC” for “Whole blood”
For the following compounds the inhibitory values of TNFalpha release [determined as −log IC30=pIC30] in human PBMCs between 5.0 and 5.9, between 6.0 and 6.9, between 7.0 and 7.9 and between 8.0 and 9.0 have been determined. The numbers of the compounds correspond to the examples numbers.
Inhibition of LPS Induced TNFalpha Release Assay in Human PBMCs: pIC30

T1 sequence (P43116 whole entry): as above

| IC50 [1] [nM] | EC50 [2] [nM] | Structure (SMILES) | IC30 [3] [µM] | IC30 [4] [µM] |
| --- | --- | --- | --- | --- |
| 1.26 to 10 | 0.126 to 1 | O=C(O)COc1cccc(NC(=O)c2cc(-c3ccccc3)cc3ccccc23)c1 [Example 4] | 12.6 to 31.6 | 0.126 to 1 |
| 1.26 to 10 | 0.126 to 1 | O=C(O)/C=C/c1ccc(F)c(NC(=O)c2cc(-c3ccccc3CO)cc3ccccc23)c1 [Example 13, (2E)-3-{4-fluoro-3-[({3-[2-(hydroxymethyl)phenyl]naphthalen-1-yl}carbonyl)amino]phenyl}prop-2-enoic acid] | 0.126 to 1 | 0.126 to 1 |
| 1.26 to 10 | 0.00631 to 0.1 | O=C(O)/C=C/c1ccc(F)c(NC(=O)c2cc(-c3cc(O)cc(F)c3)cc3ccccc23)c1 [Example 15, (2E)-3-[4-fluoro-3-({[3-(3-fluoro-5-hydroxyphenyl)naphthalen-1yl]carbonyl}amino)phenyl]prop-2-enoic acid] | 1.26 to 10 | 0.001 to 0.01 |
| 1.26 to 10 | 0.00631 to 0.1 | O=C(O)/C=C/c1cccc(NC(=O)c2cc(-c3cccc(O)c3)cc3ccccc23)c1 [Example 19, (2E)-3-[3-({[3-(3-hydroxyphenyl)naphthalen-1-yl]carbonyl}amino)phenyl]prop-2-enoic acid] | 0.126 to 1 | 0.0126 to 0.1 |
| 12.6 to 100 | 0.126 to 1 | O=C(O)/C=C/c1ccc(F)c(NC(=O)c2cc(N3CCCCC3)cc3ccccc23)c1 [Example 22, (2E)-3-[4-fluoro-3-({[3-(piperidin-1-yl)naphthalen-1-yl]carbonyl}amino)phenyl]prop-2-enoic acid] | 1.26 to 10 | 0.0126 to 0.1 |
